From paper PMC7022378, “Structural Analyses on the Deamidation of N-Terminal Asn in the Human N-Degron Pathway” (Biomolecules, 2020)
Changes are numbered by the printed parent chain.

Columns and labels:
NTAN1 S254A = experiment: In vitro deamidation assay, NTAN1 S254A mutant; assay type: biochemical, human; details: substrate NRAAA, 100 μM, 37 °C, pH 7.0, LC-MS (Figure 3b); three independent experiments
Excerpt: (§1) NTAN1 mutants were constructed using QuikChange Ⅱ Site-Directed Mutagenesis Kit (Agilent Technologies, Santa Clara, CA, USA). NTAN1 mutants, Q51A, S69A, T73A, T74A, C75A, H92A, S254A, T255A, and E260A were generated. The mutants were expressed and purified as for NTAN1.
(§2) Peptides with Nt-Asn which mimic potential substrates of NTAN1 were synthesized: NRA, NRAA, NRAAA, NRQVA, NRQVAA, NRQVAAA, NFAAR, NLAAR, NRAAR, NAAAR, NNAAR, NPAAR, NGAAR, and NDAAR. Non-Nt-Asn peptides, QRAAA and VRAAA, were also synthesized. NTAN1 (at concentrations of 0.5 μM, 0.16 μM, or 0.04 μM) and the peptides (at a concentration of 100 μM) were mixed and incubated at 37 °C in a buffer containing 200 mM NaCl and 10 mM HEPES-NaOH (pH 7.0). […] The deamidation coefficient of peptides catalyzed by NTAN1 was assessed by the slope of exponential curve drawn from the concentration of the substrate over incubation time.
(§3) The peptides were quantified by an LC-MS system (1260 Infinity/6430 Triple Quad, Agilent Technologies) equipped with a binary pump (G1312B), a thermostated column compartment (G1316C), a thermostat (G1330B), and an autosampler (G1367E). […] The data acquisition and processing were performed by using MassHunter Workstation Software Quantitative Analysis (Version B.05.00; Agilent Technologies, Santa Clara, CA, USA). […]

NTAN1 C75A = biological target: T1, NTAN1 C75A (Homo sapiens, UniProt Q96AB6, C75A); experiment: In vitro deamidation assay, NTAN1 C75A mutant; assay type: biochemical; details: substrate NRAAA, 100 μM, 37 °C, pH 7.0, LC-MS; vs wild-type (Figure 1e); three independent experiments
T1 construct: The gene for full-length NTAN1 was cloned into pET-21a(+); made in house; host or cells: E. coli Rosetta 2(DE3)
T1 sequence (Q96AB6 1-310 C75A): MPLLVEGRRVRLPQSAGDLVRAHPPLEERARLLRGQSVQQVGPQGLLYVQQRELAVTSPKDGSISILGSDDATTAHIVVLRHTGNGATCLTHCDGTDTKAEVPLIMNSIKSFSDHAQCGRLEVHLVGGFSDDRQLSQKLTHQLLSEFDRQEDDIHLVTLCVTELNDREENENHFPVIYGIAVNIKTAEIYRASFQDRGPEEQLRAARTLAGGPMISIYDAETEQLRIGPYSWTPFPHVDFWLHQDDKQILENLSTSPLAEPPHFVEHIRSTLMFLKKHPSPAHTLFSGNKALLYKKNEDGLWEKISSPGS
Excerpt: as §1, §2, §3

NTAN1 T73A = biological target: T2, NTAN1 T73A (Homo sapiens, UniProt Q96AB6, T73A); experiment: In vitro deamidation assay, NTAN1 T73A mutant; assay type: biochemical; details: substrate NRAAA, 100 μM, 37 °C, pH 7.0, LC-MS (Figure 3g); three independent experiments
T2 construct: The gene for full-length NTAN1 was cloned into pET-21a(+); made in house; host or cells: E. coli Rosetta 2(DE3)
T2 sequence (Q96AB6 1-310 T73A): T1 sequence (Q96AB6 1-310 C75A) with T73A, A75C
Excerpt: as §1, §2, §3

NTAN1 T74A = biological target: T3, NTAN1 T74A (Homo sapiens, UniProt Q96AB6, T74A); experiment: In vitro deamidation assay, NTAN1 T74A mutant; assay type: biochemical; details: substrate NRAAA, 100 μM, 37 °C, pH 7.0, LC-MS (Figure 3f); three independent experiments
T3 construct: The gene for full-length NTAN1 was cloned into pET-21a(+); made in house; host or cells: E. coli Rosetta 2(DE3)
T3 sequence (Q96AB6 1-310 T74A): T1 sequence (Q96AB6 1-310 C75A) with T74A, A75C
Excerpt: as §1, §2, §3

NRAAA [synthesized peptide with Nt-Asn, 5 mer model substrate of NTAN1]
Lower deamidation rate of NTAN1 S254A than wild-type NTAN1 (NTAN1 S254A): threefold | Deamidation activity of NTAN1 C75A (NTAN1 C75A): completely abolished | Enzymatic activity of NTAN1 T73A (NTAN1 T73A): abolished | Enzymatic activity of NTAN1 T74A (NTAN1 T74A): abolished
